Measured values taken from US9113629B2, “4-amino-6-(4-substituted-phenyl)-picolinates and 6-amino-2-(4-substituted-phenyl)-pyrimidine-4-carboxylates and their use as herbicides” (DOW AGROSCIENCES LLC, priority 2013, dated 2015).
Where two headings read alike, the source gives them in different places.

Key:
[1] = test system: Key Grass and Sedge Weeds as well as Grass Crops; test: Post-emergent Test II herbicidal activity (Table 6); assay type: in vivo; conditions: post-emergence, 336 h; for pest or weed control at 70 g/ha: 70 g ai/ha; for pest or weed control at 140 g/ha: 140 g ai/ha
Procedure: (§1) Post-emergent Test II: Seeds or nutlets of the desired test plant species were planted in Sun Gro Metro-Mix® 360 planting mixture, which typically has a pH of 6.0 to 6.8 and an organic matter content of about 30 percent, in plastic pots with a surface area of 64 square centimeters. When required to ensure good germination and healthy plants, a fungicide treatment and/or other chemical or physical treatment was applied. The plants were grown for 7-21 d in a greenhouse with an approximate 15 h photoperiod which was maintained at about 23-29° C. during the day and 22-28° C. during the night. Nutrients and water were added on a regular basis and supplemental lighting was provided with overhead metal halide 1000-Watt lamps as necessary. The plants were employed for testing when they reached the first or second true leaf stage.
(§2) A weighed amount, determined by the highest rate to be tested, of each test compound was placed in a 25 mL glass vial and was dissolved in 4 mL of a 97:3 v/v mixture of acetone and DMSO to obtain concentrated stock solutions. […] The concentrated stock solutions obtained were diluted with 20 mL of an aqueous mixture containing acetone, water, isopropyl alcohol, DMSO. Atplus 411F crop oil concentrate, and Triton® X-155 surfactant in a 48.5:39:10:1.5:1.0:0.02 v/v ratio to obtain spray solutions containing the highest application rates. Additional application rates were obtained by serial dilution of 12 mL of the high rate solution into a solution containing 2 mL of 97:3 v/v mixture of acetone and DMSO and 10 mL of an aqueous mixture containing acetone, water, isopropyl alcohol, DMSO, Atplus 411F crop oil concentrate, and Triton X-155 surfactant in a 48.5:39:10:1.5:1.0:0.02 v/v ratio to obtain ½×, ¼×, ⅛× and 1/16× rates of the high rate. Compound requirements are based upon a 12 mL application volume at a rate of 187 liters per hectare (L/ha). Formulated compounds were applied to the plant material with an overhead Mandel track sprayer equipped with 8002E nozzles calibrated to deliver 187 L/ha over an application area of 0.503 square meters at a spray height of 18 inches (43 cm) above the average plant canopy height. Control plants were sprayed in the same manner with the solvent blank.
(§3) The treated plants and control plants were placed in a greenhouse as described above and watered by subirrigation to prevent wash-off of the test compounds. After 14 d, the condition of the test plants as compared with that of the untreated plants was determined visually and scored on a scale of 0 to 100 percent where 0 corresponds to no injury and 100 corresponds to complete kill.

[2] = test system: Key Broadleaf Weed and Crop Species; test: Post-emergent Test II herbicidal activity (Table 5); assay type: in vivo; conditions: post-emergence, 336 h, 14 days after application; for pest or weed control at 70 g/ha: application rate 70 g ai/ha; for pest or weed control at 140 g/ha: application rate 140 g ai/ha
Procedure: as §1, §2, §3

[3] = CYPES: yellow nutsedge (Cyperus esculentus), read-out: Visual Growth Reduction (%) 14 Days After Application, CYPES
[4] = DIGSA: crabgrass (Digitaria sanguinalis), read-out: Visual Growth Reduction (%) 14 Days After Application, DIGSA
[5] = ECHCG: barnyardgrass (Echinochloa crus-galli), read-out: Visual Growth Reduction (%) 14 Days After Application, ECHCG
[6] = ORYSA: rice (Oryza sativa), crop, read-out: Visual Growth Reduction (%) 14 Days After Application, ORYSA
[7] = SETFA: giant foxtail (Setaria faberi), read-out: Visual Growth Reduction (%) 14 Days After Application, SETFA
[8] = SORVU: grain sorghum (Sorghum vulgare), read-out: Visual Growth Reduction (%) 14 Days After Application, SORVU
[9] = TRZSS (wheat, Triticum aestivum), crop, read-out: Visual Growth Reduction (%) 14 Days After Application, TRZSS
[10] = ZEAMX: maize, corn (Zea mays), crop, read-out: Visual Growth Reduction (%) 14 Days After Application, ZEAMX
[11] = ABUTH: velvetleaf (Abutilon theophrasti), read-out: Visual Growth Reduction (%) 14 Days After Application, ABUTH
[12] = AMARE: redroot pigweed (Amaranthus retroflexus), read-out: Visual Growth Reduction (%) 14 Days After Application, AMARE
[13] = BRSNN: oilseed-rape, canola (Brassica napus), read-out: Visual Growth Reduction (%) 14 Days After Application, BRSNN
[14] = EPHHL: wild poinsettia (Euphorbia heterophylla), read-out: Visual Growth Reduction (%) 14 Days After Application, EPHHL
[15] = HELAN: sunflower (Helianthus annuus), read-out: Visual Growth Reduction (%) 14 Days After Application, HELAN
[16] = VIOTR: wild pansy (Viola tricolor), read-out: Visual Growth Reduction (%) 14 Days After Application, VIOTR

COc1c(N)nc(-c2ccc(I)cc2)nc1C(=O)O [Compound 88]
75 to 84%: pest or weed control at 70 g/ha [1, 5] | pest or weed control at 140 g/ha [1, 5] | pest or weed control at 70 g/ha [1, 8] | pest or weed control at 70 g/ha [2, 11]
45 to 59%: pest or weed control at 70 g/ha [1, 10] | pest or weed control at 140 g/ha [1, 10] | pest or weed control at 70 g/ha [2, 16]
85 to 94%: pest or weed control at 70 g/ha [1, 3] | pest or weed control at 140 g/ha [1, 7] | pest or weed control at 140 g/ha [1, 8] | pest or weed control at 70 g/ha [2, 12] | pest or weed control at 140 g/ha [2, 12] | pest or weed control at 70 g/ha [2, 15] | pest or weed control at 140 g/ha [2, 15]
95 to 100%: pest or weed control at 140 g/ha [1, 3] | pest or weed control at 140 g/ha [2, 11] | pest or weed control at 70 g/ha [2, 13] | pest or weed control at 140 g/ha [2, 13] | pest or weed control at 140 g/ha ([2]; CHEAL: lambsquarters (Chenopodium album), read-out: Visual Growth Reduction (%) 14 Days After Application, CHEAL) | pest or weed control at 70 g/ha [2, 14] | pest or weed control at 140 g/ha [2, 14]
0 to 29%: pest or weed control at 70 g/ha [1, 4] | pest or weed control at 140 g/ha [1, 4] | pest or weed control at 70 g/ha [1, 6] | pest or weed control at 140 g/ha [1, 6]
60 to 74%: pest or weed control at 70 g/ha [1, 7] | pest or weed control at 70 g/ha [1, 9] | pest or weed control at 140 g/ha [1, 9] | pest or weed control at 140 g/ha [2, 16]
